Assay results as given in ChEMBL document CHEMBL3885881, “DrugMatrix”.

Species on record: Rattus norvegicus
Assay: DrugMatrix - Regimen: Daily Repeat
Assay type: toxicity, organism-based, Sprague-Dawley
Parameters: regimen Daily Repeat, gender Male, age 6-8 weeks
Details: in vivo, po, 1200 mg/kg, route oral GAVAGE, dose level High, vehicle 100 % WATER; for ALANINE AMINOTRANSFERASE / ALBUMIN / ALKALINE PHOSPHATASE / ASPARTATE AMINOTRANSFERASE / BLOOD UREA NITROGEN / CARBON DIOXIDE / CHLORIDE / CHOLESTEROL / CREATINE PHOSPHOKINASE / CREATININE / GLUCOSE / LACTATE DEHYDROGENASE / LIPASE / PHOSPHORUS / POTASSIUM / SODIUM / TOTAL BILIRUBIN / TOTAL PROTEIN / URIC ACID: tissue Plasma
[1] = 120 h, tissue Blood, time 5 day

COCCc1ccc(OCC(O)CNC(C)C)cc1 (configuration not stated) [METOPROLOL]
ABSOLUTE SEGMENTED NEUTROPHIL (72 h, tissue Blood, time 3 day): 909.67 CELLS/uL | BASOPHIL (72 h, tissue Blood, time 3 day): 0% | EOSINOPHIL (72 h, tissue Blood, time 3 day): 2.33% | ERYTHROCYTE COUNT (72 h, tissue Blood, time 3 day): 5.22 x10E6/uL | HEMATOCRIT (72 h, tissue Blood, time 3 day): 33.73% | HEMOGLOBIN (72 h, tissue Blood, time 3 day): 12.8 G/DL | LEUKOCYTE COUNT (72 h, tissue Blood, time 3 day): 12.47 x10E3/uL | LYMPHOCYTE (72 h, tissue Blood, time 3 day): 90.33% | MEAN CORPUSCULAR HEMOGLOBIN (72 h, tissue Blood, time 3 day): 24.57 pg | MEAN CORPUSCULAR HEMOGLOBIN CONCENTRATION (72 h, tissue Blood, time 3 day): 37.93 G/DL | MEAN CORPUSCULAR VOLUME (72 h, tissue Blood, time 3 day): 64.7 fL | MONOCYTE (72 h, tissue Blood, time 3 day): 0% | NEUTROPHIL (72 h, tissue Blood, time 3 day): 7.33% | NUCLEATED RED BLOOD CELLS (72 h, tissue Blood, time 3 day): 0 /100WBC | PLATELET COUNT (72 h, tissue Blood, time 3 day): 1290.67 x10E3/uL | ALANINE AMINOTRANSFERASE (72 h, time 3 day): 53.67 u/L | ALBUMIN (72 h, time 3 day): 3.87 G/DL | ALKALINE PHOSPHATASE (72 h, time 3 day): 394 u/L | ASPARTATE AMINOTRANSFERASE (72 h, time 3 day): 71 u/L | BLOOD UREA NITROGEN (72 h, time 3 day): 17.33 mg/dL | CARBON DIOXIDE (72 h, time 3 day): 22.33 mmol/L | CHLORIDE (72 h, time 3 day): 107.33 MEQ/L | CHOLESTEROL (72 h, time 3 day): 61.67 mg/dL | CREATINE PHOSPHOKINASE (72 h, time 3 day): 205.67 u/L | CREATININE (72 h, time 3 day): 0.14 mg/dL | GLUCOSE (72 h, time 3 day): 163.67 mg/dL | LACTATE DEHYDROGENASE (72 h, time 3 day): 229 u/L | LIPASE (72 h, time 3 day): 8 u/L | PHOSPHORUS (72 h, time 3 day): 13.37 mg/dL | POTASSIUM (72 h, time 3 day): 7.13 MEQ/L | SODIUM (72 h, time 3 day): 143.6 MEQ/L | TOTAL BILIRUBIN (72 h, time 3 day): 0.2 mg/dL | TOTAL PROTEIN (72 h, time 3 day): 5.57 G/DL | URIC ACID (72 h, time 3 day): 1.77 mg/dL | ABSOLUTE BASOPHIL [1]: 0 CELLS/uL | ABSOLUTE EOSINOPHIL [1]: 118 CELLS/uL | ABSOLUTE LYMPHOCYTE [1]: 10653.33 CELLS/uL | ABSOLUTE MONOCYTE [1]: 40.33 CELLS/uL | ABSOLUTE SEGMENTED NEUTROPHIL [1]: 1388.33 CELLS/uL | BASOPHIL [1]: 0% | EOSINOPHIL [1]: 1% | ERYTHROCYTE COUNT [1]: 5.92 x10E6/uL | HEMATOCRIT [1]: 35.9% | HEMOGLOBIN [1]: 13.47 G/DL | LEUKOCYTE COUNT [1]: 12.2 x10E3/uL | LYMPHOCYTE [1]: 87.33% | MEAN CORPUSCULAR HEMOGLOBIN [1]: 22.77 pg | MEAN CORPUSCULAR HEMOGLOBIN CONCENTRATION [1]: 37.5 G/DL | MEAN CORPUSCULAR VOLUME [1]: 60.63 fL | MONOCYTE [1]: 0.33% | NEUTROPHIL [1]: 11.33% | NUCLEATED RED BLOOD CELLS [1]: 0 /100WBC | PLATELET COUNT [1]: 1269 x10E3/uL | ALANINE AMINOTRANSFERASE (120 h, time 5 day): 41.67 u/L | ALBUMIN (120 h, time 5 day): 4 G/DL | ALKALINE PHOSPHATASE (120 h, time 5 day): 311.67 u/L | ASPARTATE AMINOTRANSFERASE (120 h, time 5 day): 79 u/L | BLOOD UREA NITROGEN (120 h, time 5 day): 16 mg/dL | CARBON DIOXIDE (120 h, time 5 day): 25 mmol/L | CHLORIDE (120 h, time 5 day): 102.33 MEQ/L | CHOLESTEROL (120 h, time 5 day): 50.67 mg/dL | CREATINE PHOSPHOKINASE (120 h, time 5 day): 364.33 u/L | CREATININE (120 h, time 5 day): 0.21 mg/dL | GLUCOSE (120 h, time 5 day): 161.33 mg/dL | LACTATE DEHYDROGENASE (120 h, time 5 day): 430 u/L | LIPASE (120 h, time 5 day): 8 u/L | PHOSPHORUS (120 h, time 5 day): 11.67 mg/dL | POTASSIUM (120 h, time 5 day): 6.24 MEQ/L | SODIUM (120 h, time 5 day): 141.53 MEQ/L | TOTAL BILIRUBIN (120 h, time 5 day): 0.2 mg/dL | TOTAL PROTEIN (120 h, time 5 day): 5.6 G/DL | URIC ACID (120 h, time 5 day): 1.73 mg/dL
